Experimental data reported in paper PMC6576746, “Rational discovery of dual-indication multi-target PDE/Kinase inhibitor for precision anti-cancer therapy using structural systems pharmacology” (PLoS Computational Biology, 2019).

What was measured:
Test in all cases: cells
Set-up in all cases: species or system panel of human cancer cell lines; Eurofins OncoPanel proliferation; nuclei count by high-content fluorescence imaging, 10-point dose response
EB2 = settings: Homo sapiens, EB2, 72 h, cell count, 3 days
Summary of the method: (§1)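 Ten half-log concentrations from 100 μM (0.1% DMSO max) applied one day post-seeding, 3-day exposure at 37°C; untreated time-zero plate for GI50. Readout is nuclear cell count by automated fluorescence imaging, giving EC50, IC50, GI50 and 0–10 activity area.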

LS-174T = settings: Homo sapiens, LS174T, 72 h, cell count, 3 days
Summary of the method: as §1

DoTc2 4510 = settings: Homo sapiens, DoTc2-4510, 72 h, cell count, 3 days
Summary of the method: as §1

SW1353 = settings: Homo sapiens, SW1353, 72 h, cell count, 3 days
Summary of the method: as §1

RPMI 6666 = settings: Homo sapiens, RPMI-6666, 72 h, cell count, 3 days
Summary of the method: as §1

SW837 = settings: Homo sapiens, SW837, 72 h, cell count, 3 days
Summary of the method: as §1

UM-UC-3 = settings: Homo sapiens, UMUC3, 72 h, cell count, 3 days
Summary of the method: as §1

CCF-STTG1 = settings: Homo sapiens, CCF-STTG1, 72 h, cell count, 3 days
Summary of the method: as §1

AN3 CA = settings: Homo sapiens, AN3-CA, 72 h, cell count, 3 days
Summary of the method: as §1

HT = settings: Homo sapiens, HT, 72 h, cell count, 3 days
Summary of the method: as §1

HLE = settings: Homo sapiens, HLE, 72 h, cell count, 3 days
Summary of the method: as §1

HOS = settings: Homo sapiens, HOS, 72 h, cell count, 3 days
Summary of the method: as §1

Hs 821.T = settings: 72 h, cell count, 3 days
Summary of the method: as §1

EM-2 = settings: Homo sapiens, EM-2, 72 h, cell count, 3 days
Summary of the method: as §1

[1] = 50% of maximum possible response

## C[C@@H]1CC(=O)NN=C1c1ccc(NN=C(C#N)C#N)cc1 [levosimendan]
EB2; [1]
  IC50: 34.4 µM
EB2; corrected for time zero
  GI50: 24.5 µM
EB2; curve inflection point
  EC50: 34.4 µM
LS-174T; [1]
  IC50: > 100 µM
LS-174T; corrected for time zero
  GI50: > 100 µM
LS-174T; curve inflection point
  EC50: > 100 µM
DoTc2 4510; [1]
  IC50: 14.6 µM
DoTc2 4510; corrected for time zero
  GI50: 11.4 µM
DoTc2 4510; curve inflection point
  EC50: 10.8 µM
SW1353; [1]
  IC50: 72.8 µM
SW1353; corrected for time zero
  GI50: 60.9 µM
SW1353; curve inflection point
  EC50: 72.8 µM
RPMI 6666; [1]
  IC50: 17.2 µM
RPMI 6666; corrected for time zero
  GI50: 11 µM
RPMI 6666; curve inflection point
  EC50: 17.2 µM
SW837; [1]
  IC50: 37.5 µM
SW837; corrected for time zero
  GI50: 31.8 µM
SW837; curve inflection point
  EC50: 33.3 µM
UM-UC-3; [1]
  IC50: 48.5 µM
UM-UC-3; corrected for time zero
  GI50: 46 µM
UM-UC-3; curve inflection point
  EC50: 48.5 µM
CCF-STTG1; [1]
  IC50: > 100 µM
CCF-STTG1; corrected for time zero
  GI50: > 100 µM
CCF-STTG1; curve inflection point
  EC50: > 100 µM
AN3 CA; [1]
  IC50: 21.2 µM
AN3 CA; corrected for time zero
  GI50: 11.6 µM
AN3 CA; curve inflection point
  EC50: 21.2 µM
HT; [1]
  IC50: 69.4 µM
HT; corrected for time zero
  GI50: 56.9 µM
HT; curve inflection point
  EC50: 69.4 µM
HLE; [1]
  IC50: 26.5 µM
HLE; corrected for time zero
  GI50: 24.3 µM
HLE; curve inflection point
  EC50: 25.2 µM
HOS; [1]
  IC50: 11.4 µM
HOS; corrected for time zero
  GI50: 9.54 µM
HOS; curve inflection point
  EC50: 11.4 µM
Hs 821.T; [1]
  IC50: > 100 µM
Hs 821.T; corrected for time zero
  GI50: > 100 µM
Hs 821.T; curve inflection point
  EC50: > 100 µM
EM-2; [1]
  IC50: 25.4 µM
EM-2; corrected for time zero
  GI50: 18.6 µM
EM-2; curve inflection point
  EC50: 22.3 µM
